# Test results from publication PMC9090415, “Discovery of small molecule inhibitors of Plasmodium falciparum apicoplast DNA polymerase” (Journal of Enzyme Inhibition and Medicinal Chemistry, 2022).
# Molecular target: P. falciparum apicoplast DNA polymerase (Pf-apPOL) (Plasmodium falciparum, UniProt Q8ILY1)
# Test: Fluorescence-based high-throughput DNA polymerase assay (molecular beacon), primary screen and dose-response
# Type: biochemical
# Procedure, shortened: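 Single-point screening used 10 µM compound with 20 nM polymerase, 20 nM hairpin substrate and 6 µM dNTPs for 90 min at 25 °C. Confirmatory titrations (2.5–80 µM) followed fluorescence at three times, and IC50 was derived from a fit including a cooperativity term n.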
# [1] = 186 hits, value of the hit list (primary screen); unit not given; 90 min, 10 µM
# [2] = primary screen value, 'DNA Pol' only; 90 min, 10 µM
# Sequence of P. falciparum apicoplast DNA polymerase (Pf-apPOL) (Q8ILY1 entry or part of it): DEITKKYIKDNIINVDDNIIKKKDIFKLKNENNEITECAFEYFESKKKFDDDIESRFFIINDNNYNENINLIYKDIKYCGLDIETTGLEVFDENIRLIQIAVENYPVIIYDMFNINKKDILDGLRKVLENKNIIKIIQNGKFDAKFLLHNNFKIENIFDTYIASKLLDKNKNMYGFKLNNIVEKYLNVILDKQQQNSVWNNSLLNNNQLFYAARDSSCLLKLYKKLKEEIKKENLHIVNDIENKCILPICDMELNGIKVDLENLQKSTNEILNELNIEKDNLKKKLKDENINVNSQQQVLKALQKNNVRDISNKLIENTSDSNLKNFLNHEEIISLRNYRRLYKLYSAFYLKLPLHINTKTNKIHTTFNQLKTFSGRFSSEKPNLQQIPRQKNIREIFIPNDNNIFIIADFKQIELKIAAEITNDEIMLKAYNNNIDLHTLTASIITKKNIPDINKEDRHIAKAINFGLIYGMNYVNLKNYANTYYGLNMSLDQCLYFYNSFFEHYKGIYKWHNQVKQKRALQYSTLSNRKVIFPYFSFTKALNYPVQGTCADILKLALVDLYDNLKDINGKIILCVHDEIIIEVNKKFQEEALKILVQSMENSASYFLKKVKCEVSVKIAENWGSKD
smiles,measurement,setting,value
COc1ccccc1C1CC(=O)Oc2cc3c(cc21)OCO3 (stereo not shown) [KU0104502],DNA Pol,"'DNA Pol' of the 186 hits list (screen value); 90 min, 10 µM",42
same,% inhibition Apo pol 10',DRC-1; 10'; conc 2.5,16.5835%
same,% inhibition Apo pol 10',DRC-1; 10'; conc 5,35.5684%
same,% inhibition Apo pol 10',DRC-1; 10'; conc 10,61.1126%
same,% inhibition Apo pol 10',DRC-1; 10'; conc 20,76.0203%
same,% inhibition Apo pol 10',DRC-1; 10'; conc 40,89.9974%
same,% inhibition Apo pol 10',DRC-1; 10'; conc 80,93.475%
same,% inhibition Apol 90',DRC-1; 90'; conc 2.5,2.531%
same,% inhibition Apol 90',DRC-1; 90'; conc 5,13.2862%
same,% inhibition Apol 90',DRC-1; 90'; conc 10,34.6587%
same,% inhibition Apol 90',DRC-1; 90'; conc 20,54.2638%
same,% inhibition Apol 90',DRC-1; 90'; conc 40,81.0345%
same,% inhibition Apol 90',DRC-1; 90'; conc 80,93.8969%
same,% inhibition apPOL 180',DRC-1; 180'; conc 2.5,-4.384%
same,% inhibition apPOL 180',DRC-1; 180'; conc 5,1.7201%
same,% inhibition apPOL 180',DRC-1; 180'; conc 10,18.8078%
same,% inhibition apPOL 180',DRC-1; 180'; conc 20,38.0211%
same,% inhibition apPOL 180',DRC-1; 180'; conc 40,74.6782%
same,% inhibition apPOL 180',DRC-1; 180'; conc 80,93.9211%
same,% inhibition Apo pol 5',DRC-2; 5'; conc 2.5,10%
same,% inhibition Apo pol 5',DRC-2; 5'; conc 5,34%
same,% inhibition Apo pol 5',DRC-2; 5'; conc 10,50%
same,% inhibition Apo pol 5',DRC-2; 5'; conc 20,59%
same,% inhibition Apo pol 5',DRC-2; 5'; conc 40,65%
same,% inhibition Apo pol 5',DRC-2; 5'; conc 80,66%
same,% inhibition Apol 40',DRC-2; 40'; conc 2.5,4.3%
same,% inhibition Apol 40',DRC-2; 40'; conc 5,27%
same,% inhibition Apol 40',DRC-2; 40'; conc 10,47%
same,% inhibition Apol 40',DRC-2; 40'; conc 20,62%
same,% inhibition Apol 40',DRC-2; 40'; conc 40,75%
same,% inhibition Apol 40',DRC-2; 40'; conc 80,80%
same,% inhibition ApPOL 90',DRC-2; 90'; conc 2.5,1.26%
same,% inhibition ApPOL 90',DRC-2; 90'; conc 5,23%
same,% inhibition ApPOL 90',DRC-2; 90'; conc 10,42%
same,% inhibition ApPOL 90',DRC-2; 90'; conc 20,60%
same,% inhibition ApPOL 90',DRC-2; 90'; conc 40,77%
same,% inhibition ApPOL 90',DRC-2; 90'; conc 80,82%
same,% inhibition apPOL 180',DRC-2; 180'; conc 2.5,-2.17%
same,% inhibition apPOL 180',DRC-2; 180'; conc 5,12%
same,% inhibition apPOL 180',DRC-2; 180'; conc 10,31%
same,% inhibition apPOL 180',DRC-2; 180'; conc 20,53%
same,% inhibition apPOL 180',DRC-2; 180'; conc 40,78%
same,% inhibition apPOL 180',DRC-2; 180'; conc 80,85%
same,DNA Pol,"primary screen value, ""DNA Pol""; 90 min, 10 µM",42
CS(=O)(=O)c1cccc(C(=O)Nc2nnc(-c3ccno3)o2)c1 [KU0171319],DNA Pol,[1],45
same,% inhibition Apo pol 10',DRC-1; 10'; concentration 2.5,6.657%
same,% inhibition Apo pol 10',DRC-1; 10'; concentration 5,14.8177%
same,% inhibition Apo pol 10',DRC-1; 10'; concentration 10,36.7259%
same,% inhibition Apo pol 10',DRC-1; 10'; concentration 20,44.3674%
same,% inhibition Apo pol 10',DRC-1; 10'; concentration 40,60.0862%
same,% inhibition Apo pol 10',DRC-1; 10'; concentration 80,69.7787%
same,% inhibition Apol 90',DRC-1; 90'; concentration 2.5,-3.363%
same,% inhibition Apol 90',DRC-1; 90'; concentration 5,1.476%
same,% inhibition Apol 90',DRC-1; 90'; concentration 10,14.1125%
same,% inhibition Apol 90',DRC-1; 90'; concentration 20,18.6112%
same,% inhibition Apol 90',DRC-1; 90'; concentration 40,31.6807%
same,% inhibition Apol 90',DRC-1; 90'; concentration 80,46.8389%
same,% inhibition apPOL 180',DRC-1; 180'; concentration 2.5,-9.274%
same,% inhibition apPOL 180',DRC-1; 180'; concentration 5,-6.316%
same,% inhibition apPOL 180',DRC-1; 180'; concentration 10,0.8537%
same,% inhibition apPOL 180',DRC-1; 180'; concentration 20,2.328%
same,% inhibition apPOL 180',DRC-1; 180'; concentration 40,13.3473%
same,% inhibition apPOL 180',DRC-1; 180'; concentration 80,27.8767%
same,% inhibition Apo pol 5',"DRC-2, 5', concentration 2.5",8%
same,% inhibition Apo pol 5',"DRC-2, 5', concentration 5",13%
same,% inhibition Apo pol 5',"DRC-2, 5', concentration 10",24%
same,% inhibition Apo pol 5',"DRC-2, 5', concentration 20",29%
same,% inhibition Apo pol 5',"DRC-2, 5', concentration 40",32%
same,% inhibition Apo pol 5',"DRC-2, 5', concentration 80",22%
same,% inhibition Apol 40',"DRC-2, 40', concentration 2.5",1.54%
same,% inhibition Apol 40',"DRC-2, 40', concentration 5",4.6%
same,% inhibition Apol 40',"DRC-2, 40', concentration 10",13%
same,% inhibition Apol 40',"DRC-2, 40', concentration 20",17%
same,% inhibition Apol 40',"DRC-2, 40', concentration 40",28%
same,% inhibition Apol 40',"DRC-2, 40', concentration 80",35%
same,% inhibition ApPOL 90',"DRC-2, 90', concentration 2.5",-0.356%
same,% inhibition ApPOL 90',"DRC-2, 90', concentration 5",0.372%
same,% inhibition ApPOL 90',"DRC-2, 90', concentration 10",8%
same,% inhibition ApPOL 90',"DRC-2, 90', concentration 20",11%
same,% inhibition ApPOL 90',"DRC-2, 90', concentration 40",21%
same,% inhibition ApPOL 90',"DRC-2, 90', concentration 80",34%
same,% inhibition apPOL 180',"DRC-2, 180', concentration 2.5",-5.4%
same,% inhibition apPOL 180',"DRC-2, 180', concentration 5",-8%
same,% inhibition apPOL 180',"DRC-2, 180', concentration 10",-3%
same,% inhibition apPOL 180',"DRC-2, 180', concentration 20",-2.43%
same,% inhibition apPOL 180',"DRC-2, 180', concentration 40",7.43%
same,% inhibition apPOL 180',"DRC-2, 180', concentration 80",26%
same,% inhibition Apo pol 5',DRC-2; 5'; concentration 2.5,8%
same,% inhibition Apo pol 5',DRC-2; 5'; concentration 5,13%
same,% inhibition Apol 40',DRC-2; 40'; concentration 10,13%
same,% inhibition ApPOL 90',DRC-2; 90'; concentration 10,8%
same,DNA Pol,[2],45
O=C(Nc1nnc(-c2ccno2)o1)c1ccc2c(c1)OCO2 [KU0171343],DNA Pol,[1],40
same,% inhibition Apo pol 10',DRC-1; 10'; concentration 2.5,0.3504%
same,% inhibition Apo pol 10',DRC-1; 10'; concentration 5,4.323%
same,% inhibition Apo pol 10',DRC-1; 10'; concentration 10,19.3402%
same,% inhibition Apo pol 10',DRC-1; 10'; concentration 20,32.3938%
same,% inhibition Apo pol 10',DRC-1; 10'; concentration 40,61.4938%
same,% inhibition Apo pol 10',DRC-1; 10'; concentration 80,79.918%
same,% inhibition Apol 90',DRC-1; 90'; concentration 2.5,-7.247%
same,% inhibition Apol 90',DRC-1; 90'; concentration 5,-7.662%
same,% inhibition Apol 90',DRC-1; 90'; concentration 10,0.8301%
same,% inhibition Apol 90',DRC-1; 90'; concentration 20,8.774%
same,% inhibition Apol 90',DRC-1; 90'; concentration 40,33.5392%
same,% inhibition Apol 90',DRC-1; 90'; concentration 80,60.7945%
same,% inhibition apPOL 180',DRC-1; 180'; concentration 2.5,-15.466%
same,% inhibition apPOL 180',DRC-1; 180'; concentration 5,-16.6627%
same,% inhibition apPOL 180',DRC-1; 180'; concentration 10,-10.0119%
same,% inhibition apPOL 180',DRC-1; 180'; concentration 20,-7.297%
same,% inhibition apPOL 180',DRC-1; 180'; concentration 40,11.9639%
same,% inhibition apPOL 180',DRC-1; 180'; concentration 80,37.6873%
same,% inhibition Apo pol 5',"DRC-2, 5', concentration 2.5",4.65%
same,% inhibition Apo pol 5',"DRC-2, 5', concentration 5",2.76%
same,% inhibition Apo pol 5',"DRC-2, 5', concentration 10",18%
same,% inhibition Apo pol 5',"DRC-2, 5', concentration 20",19%
same,% inhibition Apo pol 5',"DRC-2, 5', concentration 40",33%
same,% inhibition Apo pol 5',"DRC-2, 5', concentration 80",26%
same,% inhibition Apol 40',"DRC-2, 40', concentration 2.5",-1.21%
same,% inhibition Apol 40',"DRC-2, 40', concentration 5",-4.25%
same,% inhibition Apol 40',"DRC-2, 40', concentration 10",14%
same,% inhibition Apol 40',"DRC-2, 40', concentration 20",14%
same,% inhibition Apol 40',"DRC-2, 40', concentration 40",39%
same,% inhibition Apol 40',"DRC-2, 40', concentration 80",51%
same,% inhibition ApPOL 90',"DRC-2, 90', concentration 2.5",-3.2%
same,% inhibition ApPOL 90',"DRC-2, 90', concentration 5",-8%
same,% inhibition ApPOL 90',"DRC-2, 90', concentration 10",11%
same,% inhibition ApPOL 90',"DRC-2, 90', concentration 20",10%
same,% inhibition ApPOL 90',"DRC-2, 90', concentration 40",36%
same,% inhibition ApPOL 90',"DRC-2, 90', concentration 80",55%
same,% inhibition apPOL 180',"DRC-2, 180', concentration 2.5",-8%
same,% inhibition apPOL 180',"DRC-2, 180', concentration 5",-14%
same,% inhibition apPOL 180',"DRC-2, 180', concentration 10",1.55%
same,% inhibition apPOL 180',"DRC-2, 180', concentration 20",0.368%
same,% inhibition apPOL 180',"DRC-2, 180', concentration 40",25%
same,% inhibition apPOL 180',"DRC-2, 180', concentration 80",51%
same,% inhibition Apol 40',DRC-2; 40'; concentration 10,14%
same,% inhibition Apol 40',DRC-2; 40'; concentration 20,14%
same,% inhibition Apol 40',DRC-2; 40'; concentration 80,51%
same,% inhibition ApPOL 90',DRC-2; 90'; concentration 5,-8%
same,% inhibition apPOL 180',DRC-2; 180'; concentration 2.5,-8%
same,% inhibition apPOL 180',DRC-2; 180'; concentration 80,51%
same,DNA Pol,[2],40
